Measured values taken from patent US11976062B2, “Benzisoxazole compound” (OSAKA UNIVERSITY, priority 2018, dated 2024).

How the values were obtained:
[1] = tested on: α-SMA expression induced by TGFβ1 in dermal fibroblasts; test: Fibrosis inhibition evaluation 2: immunofluorescent staining of α-SMA in dermal fibroblasts; format: cell-based, mice; settings: 10 μM, TGFβ1 10 ng/ml, 48 hours, FIG. 7
Description: (§1) In the same manner as in Test Example 5, dermal fibroblasts were isolated from mice, and sterilized cover glass (diameter: 12 mm) was placed in a 12-well plate. On the cover glass, 2.5×10^5 cells were seeded and grown. After 24 hours, the medium was replaced with a medium free of fetal bovine serum, and the cells were cultured for another 24 hours. Separately, cardiac fibroblasts were isolated from 1 to 2-day-old rats and treated in the same manner as for the dermal fibroblasts. Thereafter, 10 ng/ml TGFβ1 was added to the dermal fibroblasts, and 2 ng/ml TGFβ2 was added to the cardiac fibroblasts, followed by culturing the cells for 48 hours. At the same time as TGFβ was added, 10 μM of a test compound (compound 011), 10 μM of Pyr 2 (conventional inhibitor), or DMSO (solvent control) was also added. Separately, cultured cells to which TGFβ-free phosphate buffered saline (PBS) was added were also prepared. […] After blocking with 1% bovine serum albumin, α-SMA was detected using anti-α-SMA antibody (Sigma) as the primary antibody and anti-mouse IgG antibody (Molecular Probes) fused with Alexa 488 as the secondary antibody, and an image was acquired using a fluorescence microscope (Keyence) with a 20× objective lens. The average fluorescence brightness (fluorescence intensity/pixel) per cell area was calculated and analyzed using Image J software.

[2] = tested on: α-SMA expression induced by TGFβ1 in dermal fibroblasts; test: Fibrosis inhibition evaluation 1: western blotting of α-SMA in dermal fibroblasts; format: cell-based, mice; settings: compound 011 0.1, 1, 10 μM (especially 10 μM); Pyr 2 10 μM; TGFβ1 10 ng/ml, 48 hours
Description: The expression of α-smooth muscle actin (α-SMA) in fibroblasts was evaluated by western blotting. Dermal fibroblasts were isolated from 1 to 3-day-old mice, and 2.5×10^5 cells were seeded in a 12-well plate. After 24 hours, the medium was replaced with a medium free of fetal bovine serum, and the cells were cultured for another 24 hours. Thereafter, 10 ng/ml of transforming growth factor β1 (TGFβ1) was added, and the cells were cultured for 48 hours. At the same time as TGFβ1 was added, a test compound (compound 011) of a predetermined concentration (0.1 μM, 1 μM, 10 μM) and 10 μM of Pyr 2 or DMSO (solvent control) were also added. […] The cultured cells were dissolved in a lysis buffer (140 mM NaCl, 20 mM Tris-HCl pH 7.8, 1% Triton-X100, 0.05% sodium deoxycholate, 0.1% SDS, 2 mM EDTA, proteinase inhibitor cocktail), and separated by SDS-PAGE, followed by detecting α-SMA using anti-α-SMA antibody (Sigma) as the primary antibody and anti-mouse IgG antibody (cell signaling) fused with horse radish peroxidase as the secondary antibody.

dermal fibroblasts = test: Fibrosis inhibition evaluation 1: cell morphology observation of dermal fibroblasts; format: cell-based, mice; settings: dermal fibroblasts cultured 48 hours with TGFβ1
[3] = tested on: renal interstitial fibrosis caused by unilateral ureteral obstruction; settings: mice; cited from earlier work
[4] = tested on: α-SMA expression induced by TGFβ2 in cardiac fibroblasts; test: Fibrosis inhibition evaluation 2: immunofluorescent staining of α-SMA in cardiac fibroblasts; format: cell-based, rats; settings: 10 μM, TGFβ2 2 ng/ml, 48 hours, FIG. 8
Description: as §1

## Cc1nnsc1C(=O)Nc1ccc(-n2nc(C(F)(F)F)cc2C(F)(F)F)cc1 [Pyr 2, reference compound]
[1]
  expression of α-SMA induced by TGFβ (immunofluorescent staining): almost completely suppressed the expression of α-SMA
[2]
  expression of α-SMA induced by TGFβ1 (western blotting): lighter coloration of the α-SMA antibody compared with the control
Dermal fibroblasts
  cell morphology / cell damage by microscopic observation: cell elongation
[3]
  suppression of renal interstitial fibrosis caused by unilateral ureteral obstruction: suppresses renal interstitial fibrosis caused by unilateral ureteral obstruction
[4]
  expression of α-SMA induced by TGFβ (immunofluorescent staining): almost completely suppressed the expression of α-SMA
